Test results from patent US8927130B2, “Electrolyte for redox flow battery and redox flow battery including the same” (Samsung Electronics Co., Ltd., priority 2011, dated 2015).

Assay: Cyclic voltammetry of electrolytes for 100 cycles
Format: physicochemical
Settings: in the electrolytes of Examples 1 and 2 (GBL, 0.5 M TEABF4), cyclic voltammetry 100 cycles
Method: A current value as a function of potential was measured for 100 cycles by using each of the electrolytes of Examples 1 and 2, at a potential scan rate of 10 mV/s and in a potential scan range of about −2 V to about 1.25 V. A cell for measuring the cyclic voltammogram included an Ag/Ag^+ electrode in which 0.3 M of AgNO3 was dissolved in acetonitrile as a solvent as a reference electrode, carbon felt as a working electrode, and platinum as a counter electrode. The measurement results are illustrated in FIGS. 6A and 6B.

O=S(=O)([N-]S(=O)(=O)C(F)(F)F)C(F)(F)F.O=S(=O)([N-]S(=O)(=O)C(F)(F)F)C(F)(F)F.[Ni+2].c1ccc(-c2ccccn2)nc1.c1ccc(-c2ccccn2)nc1.c1ccc(-c2ccccn2)nc1 [Preparation Example 1, Ni(bpy)3(TFSI)2]
stability of the redox couple of the metal salt in the electrolyte: stable
